For one assay, the target named is T1, rcaspase 3 (Homo sapiens, UniProt P42574).
T1 construct: purchased PharMingen (a Becton division company, San Diego, Calif.)
T1 sequence (P42574 29-175 limits assumed): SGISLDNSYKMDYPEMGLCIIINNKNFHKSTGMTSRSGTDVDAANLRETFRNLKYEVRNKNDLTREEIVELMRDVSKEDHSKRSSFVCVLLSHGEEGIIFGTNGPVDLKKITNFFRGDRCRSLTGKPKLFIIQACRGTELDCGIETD
T1 sequence (P42574 176-277 limits assumed): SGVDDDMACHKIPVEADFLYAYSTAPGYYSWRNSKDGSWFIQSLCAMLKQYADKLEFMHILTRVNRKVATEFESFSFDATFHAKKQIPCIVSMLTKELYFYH
Briefly: Fluorometric caspase-3 enzyme assay. In kind it is biochemical. To be noted: 2 ng rcaspase 3, 10 μM Ac-DEVD-AMC, 37° C., 30 minutes; read-out: IC50 as an inhibitor of caspase-3. The procedure: The activity of S-2-methyl-1-(carbonyl-Asp-CH2F)propyl N-phenylcarbamate as an inhibitor of caspase-3 was measured in a fluorometric enzyme assay. Enzyme activity was measured using synthetic peptide substrates attached to a fluorogenic leaving group. Cleavage of the synthetic substrate by the enzyme results in a fluorescent signal which is read in a spectrofluorometer or in a fluorometric microtiter plate reader.
12 concentrations of the test compound ranging from 30 pM to 10 μM were tested in the enzyme assay. The enzyme reaction was conducted in the presence of 2 ng rcaspase 3 (purchased from PharMingen, a Becton division company, San Diego, Calif.), various concentrations of test compound, 10 μM caspase 3 substrate Ac-DEVD-AMC (SEQ ID NO:1, purchased from Quality Controlled Biochemicals, Inc. Hopkinton, Mass.) and caspase buffer (20 mM PIPES, 100 mM NaCl, 10 mM DTT, 1 mM EDTA, 0.1% CHAPS and 10% sucrose, pH 7.2) in a total volume of 100 μL. The enzyme reaction was carried out in a 96-well plate and incubated at 37° C. for 30 minutes. The plate was then read with a fluorescence plate reader (EG&G WALLAG 1420-002) using excitation filter at 355 nm/emission filter at 460 nm.

A further assay relates to HeLa cells. Briefly: Cell protection: HeLa cell death induced by TNF-α. In kind it is cell-based. To be noted: TNF-α (25 ng/ml) and cycloheximide (30 μg/ml), 24 hours, calcein AM, read-out: EC50 for cytoprotection. The procedure:
Cell protection activity was determined by examining the ability of S-2-methyl-1-(carbonyl-Asp-CH2F)propyl N-phenylcarbamate to block HeLa cell death induced by TNF-α. In this assay, 25,000 HeLa cells are seeded in 96-well plates 24 hours prior to testing. On the assay day, the cells are pre-incubated for 30 minutes with the test compound at eight different concentrations and the cells are then challenged with TNF-α (25 ng/ml) and cycloheximide (30 μg/ml) and incubated further for 24 hours. The dead cells are then removed by two PBS washes and 100 μL of a cell-mass indicator solution (calcein AM, final concentration 8 μM) is added. After a 20 minute incubation, the fluorescent signal is measured at 485/510 nm and the data are expressed as percent control, using control cultures treated only with cycloheximide.

Turning to `CC(C)[C@H](OC(=O)Nc1ccccc1)C(=O)N[C@@H](CC(=O)O)C(=O)CF` [Example 3, S-2-Methyl-1-(carbonyl-Asp-CH2F)propyl N-Phenylcarbamate], the 50% inhibitory concentration (IC50) on rcaspase 3 came to 17 nM. Further, the EC50 with HeLa cells is 150 nM.

The values above are taken from US6495522B1, “Substituted alpha-hydroxy acid caspase inhibitors and the use thereof” (Cytovia, Inc., priority 1999, dated 2002).
